The values below are quoted from earlier work in patent US20070190095A1, “Coffee and its derivatives as an animal repellent composition and its use in a molluscicide bait” (priority 2006, published 2007).

This series concerns snails. The following applies: 2% solution of caffeine in water sprayed on coconut husk-chip material in which orchids are grown.

Consider `Cn1c(=O)c2c(ncn2C)n(C)c1=O` [caffeine, Caffeine], for which the snails killed is 95%.
